Relative viability data for one cell line are collected here from the supplement of paper PMC10307832.

What all share (test): relative viability (nuclei count vs DMSO), 5 days (fraction); higher = more cells survive
Compound in the assay “Zosuquidar + Crizotinib”: O[C@@H](COc1cccc2ncccc12)CN1CCN([C@@H]2c3ccccc3[C@@H]3[C@H](c4ccccc42)C3(F)F)CC1 [Zosuquidar] + C[C@@H](Oc1cc(-c2cnn(C3CCNCC3)c2)cnc1N)c1c(Cl)ccc(F)c1Cl [Crizotinib] (partner 1 µM)
In a few lines:
(§1)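 The day after seeding in 1536-well plates, lung cancer cell lines were treated by pin tool with a single drug, or with a fixed anchor-drug dose together with five library-drug doses (not always all listed) in √10 steps. After 5 days, a combined fix-and-stain solution (final 0.05% Triton X-100, 1% formaldehyde, 1 ug/ml Hoechst) was added. Nuclei counted on 4× images gave relative viability as treated counts over vehicle counts, reported as the median of duplicate plates.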

Compound in assay [1]: COc1cc2nccc(Oc3ccc(NC(=O)C4(C(=O)Nc5ccc(F)cc5)CC4)cc3)c2cc1OC [Cabozantinib] + O=C(CCCCCCC(=O)Nc1ccccc1)NO [Vorinostat] (partner 1 µM)
A digest of the protocol:
as §1

Compound in the assay “Zosuquidar + Luminespib”: O[C@@H](COc1cccc2ncccc12)CN1CCN([C@@H]2c3ccccc3[C@@H]3[C@H](c4ccccc42)C3(F)F)CC1 [Zosuquidar] + CCNC(=O)c1noc(-c2cc(C(C)C)c(O)cc2O)c1-c1ccc(CN2CCOCC2)cc1 [Luminespib] (partner 0.01 µM)
In a few lines:
as §1

Compound in the assay “Kobe2602 + Lapatinib”: C1=CC(=CC=C1NC(=S)NNC2=C(C=C(C=C2[N+](=O)[O-])C(F)(F)F)[N+](=O)[O-])F [Kobe2602] + CS(=O)(=O)CCNCc1ccc(-c2ccc3ncnc(Nc4ccc(OCc5cccc(F)c5)c(Cl)c4)c3c2)o1 [Lapatinib] (partner 2 µM)
In a few lines: as §1

As for UMC-11, the relative viability with Zosuquidar + Crizotinib (first compound 0.01 µM) worked out at 0.494; with Zosuquidar + Crizotinib (first compound 0.03162 µM), 0.619; in the assay with Zosuquidar + Crizotinib (first compound 0.1 µM), 0.578; in the assay with Zosuquidar + Crizotinib (first compound 0.3162 µM), 0.622; in the assay with Zosuquidar + Crizotinib (first compound 1 µM), 0.564; in assay [1] (first compound 0.02 µM), 0.302. In addition, the relative viability in assay [1] (first compound 0.06325 µM) worked out at 0.336; in assay [1] (first compound 0.2 µM), 0.37; in assay [1] (first compound 0.6325 µM), 0.323; in assay [1] (first compound 2 µM), 0.332; with Zosuquidar + Luminespib (first compound 0.01 µM), 0.97; with Zosuquidar + Luminespib (first compound 0.03162 µM) it was 0.943. Moreover, the relative viability is 1.08 with Zosuquidar + Luminespib (first compound 0.1 µM); 1.1 with Zosuquidar + Luminespib (first compound 0.3162 µM); 1.18 with Zosuquidar + Luminespib (first compound 1 µM); 0.696 in the assay with Kobe2602 + Lapatinib (first compound 0.2 µM); 1 with Kobe2602 + Lapatinib (first compound 0.6325 µM); 0.958 in the assay with Kobe2602 + Lapatinib (first compound 2 µM). For the same cell line, the relative viability in the assay with Kobe2602 + Lapatinib (first compound 6.325 µM) worked out at 1.07; with Kobe2602 + Lapatinib (first compound 20 µM), 1.12.
